Measurements taken from PubChem BioAssay AID330 (DTP/NCI, 2004).
Values joined by “and” are separate entries in the source; they are usually repeats but may differ in a detail not shown here. Equal entries are not always repeated. Toxic doses and inconclusive results are not listed.

Test system: P388 leukemia ip, CD2F1 mice, survival T/C
Test: NCI In Vivo Anticancer Drug Screen. Data for tumor model P388 Leukemia (intraperitoneal) in CD2F1 (CDF1) mice
Details: endpoint: median survival time, higher = longer survival
Procedure, shortened: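 Mice carrying the transplanted tumor received test compound or vehicle. Survival was recorded in each group, and the value is the treated-group measurement divided by that of the vehicle-treated control group.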

[1] = dose: 25.0 mg/kg/injection, schedule: Q01DX009 (ip), vehicle: saline with Tween-80
[2] = dose: 50.0 mg/kg/injection, schedule: Q01DX009 (ip), vehicle: saline with Tween-80
[3] = dose: 100.0 mg/kg/injection, schedule: Q01DX009 (ip), vehicle: saline with Tween-80
[4] = dose: 60.0 mg/kg/injection, schedule: Q01DX005 (ip), vehicle: saline with Tween-80
[5] = dose: 120.0 mg/kg/injection, schedule: Q01DX005 (ip), vehicle: saline with Tween-80
[6] = dose: 200.0 mg/kg/injection, schedule: Q01DX009 (ip), vehicle: saline with Tween-80
[7] = dose: 100.0 mg/kg/injection, schedule: Q01DX009 (ip), vehicle: Klucel (hydroxypropylcellulose) (HPC)
[8] = dose: 200.0 mg/kg/injection, schedule: Q01DX009 (ip), vehicle: Klucel (hydroxypropylcellulose) (HPC)
[9] = dose: 50.0 mg/kg/injection, schedule: Q01DX009 (ip), vehicle: Klucel (hydroxypropylcellulose) (HPC)
[10] = dose: 12.5 mg/kg/injection, schedule: Q01DX009 (ip), vehicle: saline with Tween-80

For `COc1c2occc2cc2ccc(=O)oc12`, the T/C (dose: 8.0 mg/kg/injection, schedule: Q01DX009 (ip), vehicle: saline with Tween-80) was 89 % of control, the T/C (dose: 11.0 mg/kg/injection, schedule: Q01DX009 (ip), vehicle: saline with Tween-80) was 111 % of control and the T/C (dose: 16.0 mg/kg/injection, schedule: Q01DX009 (ip), vehicle: saline with Tween-80) was 87 % of control. The T/C (dose: 22.0 mg/kg/injection, schedule: Q01DX009 (ip), vehicle: saline with Tween-80) was 102 % of control, the T/C [1] was 121 % of control and the T/C (dose: 32.0 mg/kg/injection, schedule: Q01DX009 (ip), vehicle: saline with Tween-80) was 100 % of control. For the same molecule, the T/C (dose: 44.0 mg/kg/injection, schedule: Q01DX009 (ip), vehicle: saline with Tween-80) was 104 % of control, the T/C [2] was 116 % of control and the T/C (dose: 64.0 mg/kg/injection, schedule: Q01DX009 (ip), vehicle: saline with Tween-80) was 88 % of control. For the same molecule, the T/C (dose: 88.0 mg/kg/injection, schedule: Q01DX009 (ip), vehicle: saline with Tween-80) was 107 % of control, the T/C [3] was 117 % of control and the T/C (dose: 128.0 mg/kg/injection, schedule: Q01DX009 (ip), vehicle: saline with Tween-80) was 106 % of control. For the same molecule, the T/C (dose: 256.0 mg/kg/injection, schedule: Q01DX009 (ip), vehicle: saline with Tween-80) was 94 % of control.

`Cc1ncc(/C=N/O)n1Cc1ccccc1` was tested, and the T/C [4] was 99 % of control, the T/C [5] was 93 % of control and the T/C (dose: 240.0 mg/kg/injection, schedule: Q01DX005 (ip), vehicle: saline with Tween-80) was 90 % of control.

For `O=NN(c1ccc(Br)cc1)c1ccccn1`, the T/C (dose: 25.0 mg/kg/injection, schedule: Q01DX009 (ip), vehicle: other) was 102 % of control, the T/C (dose: 50.0 mg/kg/injection, schedule: Q01DX009 (ip), vehicle: other) was 109 % of control and the T/C [2] was 100 % of control. For the same molecule, the T/C (dose: 100.0 mg/kg/injection, schedule: Q01DX009 (ip), vehicle: other) was 109 % of control, the T/C [3] was 100 % of control and the T/C (dose: 200.0 mg/kg/injection, schedule: Q01DX009 (ip), vehicle: other) was 114 % of control. The T/C [6] was 97 % of control and the T/C (dose: 400.0 mg/kg/injection, schedule: Q01DX009 (ip), vehicle: other) was 112 % of control.

In the case of `O=C1COC(c2ccccc2O)=NN1Cc1ccccc1`, the T/C [2] is reported as 94 % of control, the T/C [3] is reported as 92 % of control and the T/C [6] is reported as 99 % of control.

For `C1=NOC2c3ccc4ccccc4c3CCC12` (stereo not drawn), the T/C [7] was 100 % of control, the T/C [8] was 95 % of control and the T/C (dose: 400.0 mg/kg/injection, schedule: Q01DX009 (ip), vehicle: Klucel (hydroxypropylcellulose) (HPC)) was 100 % of control.

In the case of `CNC(C)C#N` (stereo not drawn), the T/C (dose: 3.75 mg/kg/injection, schedule: Q01DX005 (ip), vehicle: saline) is reported as 94 % of control, the T/C (dose: 7.5 mg/kg/injection, schedule: Q01DX005 (ip), vehicle: saline) is reported as 100 % of control and the T/C (dose: 15.0 mg/kg/injection, schedule: Q01DX005 (ip), vehicle: saline) is reported as 102 % of control.

With `CCCCCCCCCCC(=O)Nc1ncc([N+](=O)[O-])s1` the T/C [9] was 96 % of control, the T/C [7] was 100 % of control and the T/C [8] was 102 % of control.

For `COC1CCC2=C(C1)C(=O)CC1c3ccccc3CN21` (stereo not drawn), the T/C [10] was 100 % of control, the T/C [1] was 100 % of control and the T/C [2] was 100 % of control.

For `CCCCC1(CCCCCCCCC(O)CC(=O)OCC)OCCO1` (stereo not drawn), the T/C (dose: 100.0 mg/kg/injection, schedule: Q04DX002 (ip), vehicle: Klucel (hydroxypropylcellulose) (HPC)) was 104 % of control, the T/C (dose: 200.0 mg/kg/injection, schedule: Q04DX002 (ip), vehicle: Klucel (hydroxypropylcellulose) (HPC)) was 100 % of control and the T/C (dose: 400.0 mg/kg/injection, schedule: Q04DX002 (ip), vehicle: Klucel (hydroxypropylcellulose) (HPC)) was 96 % of control.

In the case of `Nc1nc(-c2ccc(F)cc2)cc(-c2cc(-c3ccc(F)cc3)nc(N)n2)n1`, the T/C (dose: 60.0 mg/kg/injection, schedule: Q01DX005 (ip), vehicle: saline) is reported as 100 % of control, the T/C (dose: 120.0 mg/kg/injection, schedule: Q01DX005 (ip), vehicle: saline) is reported as 105 % of control and the T/C (dose: 240.0 mg/kg/injection, schedule: Q01DX005 (ip), vehicle: saline) is reported as 102 % of control.

For `COc1cc2c(c(OC)c1OC)-c1ccc(OC)c(=O)cc1C([N+](C)(C)C)CC2` (stereo not drawn), the T/C (dose: 2.5 mg/kg/injection, schedule: Q01DX009 (ip), vehicle: Klucel (hydroxypropylcellulose) (HPC)) was 94 % of control, the T/C (dose: 5.0 mg/kg/injection, schedule: Q01DX009 (ip), vehicle: Klucel (hydroxypropylcellulose) (HPC)) was 100 % of control and the T/C (dose: 10.0 mg/kg/injection, schedule: Q01DX009 (ip), vehicle: Klucel (hydroxypropylcellulose) (HPC)) was 103 % of control. For the same molecule, the T/C (dose: 20.0 mg/kg/injection, schedule: Q01DX009 (ip), vehicle: Klucel (hydroxypropylcellulose) (HPC)) was 100 % of control.

In the case of `CCC/C=C/C=C/C(=O)OC1/C(=C/C(=O)OC)CC2CC(C(C)O)OC(=O)CC(O)CC3CC(OC(C)=O)C(C)(C)C(O)(CC4C/C(=C/C(=O)OC)CC(/C=C/C(C)(C)C1(O)O2)O4)O3` (stereo not drawn), the T/C (dose: 0.01 mg/kg/injection, schedule: Q01DX009 (ip), vehicle: saline + alcohol) is reported as 152 % of control, the T/C (dose: 0.03 mg/kg/injection, schedule: Q01DX009 (ip), vehicle: saline + alcohol) is reported as 186 % of control and the T/C (dose: 0.07 mg/kg/injection, schedule: Q01DX009 (ip), vehicle: saline + alcohol) is reported as 163 % of control and 196 % of control. For the same molecule, the T/C (dose: 0.15 mg/kg/injection, schedule: Q01DX009 (ip), vehicle: saline + alcohol) was 179 % of control, the T/C (dose: 18.75 micrograms/kg/injection, schedule: Q01DX009 (ip), vehicle: saline + alcohol) was 175 % of control and the T/C (dose: 37.5 micrograms/kg/injection, schedule: Q01DX009 (ip), vehicle: saline + alcohol) was 177 % of control. For the same molecule, the T/C (dose: 75.0 micrograms/kg/injection, schedule: Q01DX009 (ip), vehicle: saline + alcohol) was 177 % of control.

`CCN(CC)C(=O)/C(C)=C1/c2ccccc2S(=O)(=O)N1C` was tested, and the T/C (dose: 100.0 mg/kg/injection, schedule: Q04DX003 (ip), vehicle: Klucel (hydroxypropylcellulose) (HPC)) was 109 % of control, the T/C (dose: 200.0 mg/kg/injection, schedule: Q04DX003 (ip), vehicle: Klucel (hydroxypropylcellulose) (HPC)) was 94 % of control and the T/C (dose: 400.0 mg/kg/injection, schedule: Q04DX003 (ip), vehicle: Klucel (hydroxypropylcellulose) (HPC)) was 98 % of control.

`c1ccc2c(CNC3CCCCC3)c[nH]c2c1` was tested, and the T/C (dose: 25.0 mg/kg/injection, schedule: Q01DX009 (ip), vehicle: Klucel (hydroxypropylcellulose) (HPC)) was 109 % of control, the T/C [9] was 98 % of control and the T/C [7] was 96 % of control.

In the case of `CCOC(=O)CC(=O)Nc1sc(CC)cc1C(=O)OCC`, the T/C [4] is reported as 100 % of control and the T/C [5] is reported as 94 % of control.

For `CONC(=O)N/N=C\c1c(CO)cnc(C)c1O`, the T/C (dose: 7.5 mg/kg/injection, schedule: Q01DX005 (ip), vehicle: Klucel (hydroxypropylcellulose) (HPC)) was 105 % of control, the T/C (dose: 15.0 mg/kg/injection, schedule: Q01DX005 (ip), vehicle: Klucel (hydroxypropylcellulose) (HPC)) was 102 % of control and the T/C (dose: 30.0 mg/kg/injection, schedule: Q01DX005 (ip), vehicle: Klucel (hydroxypropylcellulose) (HPC)) was 102 % of control.

For `C/C(=N\NC(=S)N1CCC1)c1ccccn1`, the T/C (dose: 1.56 mg/kg/injection, schedule: Q01DX005 (ip), vehicle: other) was 99 % of control, the T/C (dose: 3.12 mg/kg/injection, schedule: Q01DX005 (ip), vehicle: other) was 103 % of control and the T/C (dose: 6.25 mg/kg/injection, schedule: Q01DX005 (ip), vehicle: other) was 99 % of control. The T/C (dose: 6.25 mg/kg/injection, schedule: Q01DX009 (ip), vehicle: saline with Tween-80) was 95 % of control, the T/C (dose: 12.5 mg/kg/injection, schedule: Q01DX005 (ip), vehicle: other) was 94 % of control and the T/C [10] was 99 % of control. For the same molecule, the T/C (dose: 25.0 mg/kg/injection, schedule: Q01DX005 (ip), vehicle: other) was 100 % of control.

For `COc1ccc(CNC(=O)C2C(=O)C(=O)N(Cc3ccc(OC)c(OC)c3)C2=O)cc1OC` (stereo not drawn), the T/C [9] was 105 % of control, the T/C [7] was 96 % of control and the T/C [8] was 103 % of control.

With `CC(=O)OC1C2CCC3C(C)(O)C4CC(O)C(C)(C)C4(O)C(O)CC13CC2(C)O` (stereo not drawn) the T/C (dose: 0.09 mg/kg/injection, schedule: Q01DX009 (ip), vehicle: saline) was 100 % of control, the T/C (dose: 0.19 mg/kg/injection, schedule: Q01DX009 (ip), vehicle: saline) was 98 % of control and the T/C (dose: 0.25 mg/kg/injection, schedule: Q01DX009 (ip), vehicle: saline) was 116 % of control. The T/C (dose: 0.39 mg/kg/injection, schedule: Q01DX009 (ip), vehicle: saline) was 100 % of control and 89 % of control, the T/C (dose: 0.5 mg/kg/injection, schedule: Q01DX009 (ip), vehicle: saline) was 108 % of control and the T/C (dose: 1.0 mg/kg/injection, schedule: Q01DX009 (ip), vehicle: saline) was 107 % of control.
